pEC50: −log10 of the molar value. Where only a bound is given, the exact number is not on record here.

Data on one compound can be found in article PMC9165921 (Molecular Biology, 2022).

For the experiment, the system named is SARS-CoV-2 strain PIK35. The experiment in a line: microbe, parasite or virus in culture. Type of experiment: cell-based. The note with it: Severe acute respiratory syndrome coronavirus 2, Vero, 120 h.

Take `O=c1nc(NO)ccn1[C@@H]1O[C@H](CO)[C@@H](O)[C@H]1O` [N^4-hydroxycytidine]: the negative logarithm of the EC50 (pEC50) was below 5.30.
